± gives the standard deviation of the averaged measurements.
How the values were obtained:
RESVERATROL = compound: Oc1ccc(/C=C/c2cc(O)cc(O)c2)cc1 [RESVERATROL]; assay: surviving fraction relative to DMSO-only wells; higher = less growth inhibition; conditions: exposure time: 5 days
Outline: (§1)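 Lines were retained only if, across three screens, replicate Pearson r was >0.7 and median Z' was >0.3. Viability was measured as CellTiter-Glo luminescence and reported as surviving fraction relative to the median of DMSO-only wells. Readings followed 10 minutes at room temperature, after log-phase tumour cells seeded at 250–500 per well in 384-well plates had been exposed, from 24 hours after seeding, continuously for five days to inhibitors at 0.5, 1, 5, 10, 50, 100, 500 and 1000 nM.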

VISMODEGIB = compound: CS(=O)(=O)c1ccc(C(=O)Nc2ccc(Cl)c(-c3ccccn3)c2)c(Cl)c1 [VISMODEGIB]; assay: as above; conditions: exposure time: 5 days
Outline: as §1

CCK81 LARGE INTESTINE gave a surviving fraction (RESVERATROL; 0.5 nM) of 0.73 ± 0.017, a surviving fraction (RESVERATROL; 1 nM) of 0.79 ± 0.13 and a surviving fraction (RESVERATROL; 5 nM) of 0.71 ± 0.065. The surviving fraction (RESVERATROL; 10 nM) was 0.724 ± 0.037, the surviving fraction (RESVERATROL; 50 nM) was 0.671 ± 0.058 and the surviving fraction (RESVERATROL; 100 nM) was 0.793 ± 0.11. For the same test system, the surviving fraction (RESVERATROL; 500 nM) was 0.844 ± 0.085 and the surviving fraction (RESVERATROL; 1000 nM) was 0.728 ± 0.039.

In the case of G292 BONE, the surviving fraction (VISMODEGIB; 0.5 nM) is reported as 0.963 ± 0.032, the surviving fraction (VISMODEGIB; 1 nM) is reported as 0.989 ± 0.018 and the surviving fraction (VISMODEGIB; 5 nM) is reported as 1.01 ± 0.057. It also gave a surviving fraction (VISMODEGIB; 10 nM) of 0.96 ± 0.016, a surviving fraction (VISMODEGIB; 50 nM) of 0.959 ± 0.049 and a surviving fraction (VISMODEGIB; 100 nM) of 0.975 ± 0.019. The surviving fraction (VISMODEGIB; 500 nM) was 0.927 ± 0.061, the surviving fraction (VISMODEGIB; 1000 nM) was 0.932 ± 0.014 and the surviving fraction (RESVERATROL; 0.5 nM) was 0.995 ± 0.051. The surviving fraction (RESVERATROL; 1 nM) was 0.988 ± 0.011, the surviving fraction (RESVERATROL; 5 nM) was 1.06 ± 0.018 and the surviving fraction (RESVERATROL; 10 nM) was 1.07 ± 0.032. It also gave a surviving fraction (RESVERATROL; 50 nM) of 1.01 ± 0.027, a surviving fraction (RESVERATROL; 100 nM) of 1.055 ± 0.0077 and a surviving fraction (RESVERATROL; 500 nM) of 1.04 ± 0.017. It also gave a surviving fraction (RESVERATROL; 1000 nM) of 1.03 ± 0.045.

HCC38 BREAST was tested, and the surviving fraction (VISMODEGIB; 0.5 nM) was 0.743 ± 0.17, the surviving fraction (VISMODEGIB; 1 nM) was 0.928 ± 0.2 and the surviving fraction (VISMODEGIB; 5 nM) was 0.895 ± 0.31. It also gave a surviving fraction (VISMODEGIB; 10 nM) of 1.12 ± 0.38, a surviving fraction (VISMODEGIB; 50 nM) of 0.668 ± 0.12 and a surviving fraction (VISMODEGIB; 100 nM) of 0.677 ± 0.24. It also gave a surviving fraction (VISMODEGIB; 500 nM) of 0.743 ± 0.24, a surviving fraction (VISMODEGIB; 1000 nM) of 0.609 ± 0.11 and a surviving fraction (RESVERATROL; 0.5 nM) of 1.21 ± 0.057. It also gave a surviving fraction (RESVERATROL; 1 nM) of 1.37 ± 0.15, a surviving fraction (RESVERATROL; 5 nM) of 1.48 ± 0.13 and a surviving fraction (RESVERATROL; 10 nM) of 1.56 ± 0.2. It also gave a surviving fraction (RESVERATROL; 50 nM) of 1.37 ± 0.063, a surviving fraction (RESVERATROL; 100 nM) of 1.2 ± 0.16 and a surviving fraction (RESVERATROL; 500 nM) of 1.24 ± 0.14. For the same test system, the surviving fraction (RESVERATROL; 1000 nM) was 1.18 ± 0.18.

With HCC70 BREAST the surviving fraction (VISMODEGIB; 0.5 nM) was 0.977 ± 0.041, the surviving fraction (VISMODEGIB; 1 nM) was 0.964 ± 0.067 and the surviving fraction (VISMODEGIB; 5 nM) was 1.14 ± 0.055. The surviving fraction (VISMODEGIB; 10 nM) was 1.11 ± 0.012, the surviving fraction (VISMODEGIB; 50 nM) was 1.11 ± 0.084 and the surviving fraction (VISMODEGIB; 100 nM) was 1.12 ± 0.048. For the same test system, the surviving fraction (VISMODEGIB; 500 nM) was 1.04 ± 0.037, the surviving fraction (VISMODEGIB; 1000 nM) was 1.1 ± 0.026 and the surviving fraction (RESVERATROL; 0.5 nM) was 1.09 ± 0.07. The surviving fraction (RESVERATROL; 1 nM) was 1.11 ± 0.11, the surviving fraction (RESVERATROL; 5 nM) was 1.14 ± 0.13 and the surviving fraction (RESVERATROL; 10 nM) was 1.04 ± 0.049. It also gave a surviving fraction (RESVERATROL; 50 nM) of 1.13 ± 0.066, a surviving fraction (RESVERATROL; 100 nM) of 1.06 ± 0.054 and a surviving fraction (RESVERATROL; 500 nM) of 1.11 ± 0.075. For the same test system, the surviving fraction (RESVERATROL; 1000 nM) was 0.999 ± 0.022.

HMLE3 BREAST gave a surviving fraction (VISMODEGIB; 0.5 nM) of 0.911 ± 0.11, a surviving fraction (VISMODEGIB; 1 nM) of 0.929 ± 0.037 and a surviving fraction (VISMODEGIB; 5 nM) of 1 ± 0.03. The surviving fraction (VISMODEGIB; 10 nM) was 0.949 ± 0.013, the surviving fraction (VISMODEGIB; 50 nM) was 0.882 ± 0.096 and the surviving fraction (VISMODEGIB; 100 nM) was 0.969 ± 0.038. The surviving fraction (VISMODEGIB; 500 nM) was 0.882 ± 0.15, the surviving fraction (VISMODEGIB; 1000 nM) was 0.893 ± 0.11 and the surviving fraction (RESVERATROL; 0.5 nM) was 1.01 ± 0.067. It also gave a surviving fraction (RESVERATROL; 1 nM) of 1.03 ± 0.089, a surviving fraction (RESVERATROL; 5 nM) of 1.02 ± 0.051 and a surviving fraction (RESVERATROL; 10 nM) of 1.03 ± 0.061. For the same test system, the surviving fraction (RESVERATROL; 50 nM) was 1.04 ± 0.096, the surviving fraction (RESVERATROL; 100 nM) was 1.03 ± 0.13 and the surviving fraction (RESVERATROL; 500 nM) was 1.06 ± 0.055. For the same test system, the surviving fraction (RESVERATROL; 1000 nM) was 1.12 ± 0.12.

HMT3552 BREAST showed a surviving fraction (VISMODEGIB; 0.5 nM) of 1.07, a surviving fraction (VISMODEGIB; 1 nM) of 1.02 and a surviving fraction (VISMODEGIB; 5 nM) of 1.05. It also gave a surviving fraction (VISMODEGIB; 10 nM) of 1.06, a surviving fraction (VISMODEGIB; 50 nM) of 0.804 and a surviving fraction (VISMODEGIB; 100 nM) of 1.16. For the same test system, the surviving fraction (VISMODEGIB; 500 nM) was 0.925, the surviving fraction (VISMODEGIB; 1000 nM) was 0.937 and the surviving fraction (RESVERATROL; 0.5 nM) was 1.06 ± 0.038. For the same test system, the surviving fraction (RESVERATROL; 1 nM) was 1.12 ± 0.047, the surviving fraction (RESVERATROL; 5 nM) was 1.09 ± 0.027 and the surviving fraction (RESVERATROL; 10 nM) was 1.03 ± 0.067. It also gave a surviving fraction (RESVERATROL; 50 nM) of 1.07 ± 0.039, a surviving fraction (RESVERATROL; 100 nM) of 1.17 ± 0.056 and a surviving fraction (RESVERATROL; 500 nM) of 1.12 ± 0.044. For the same test system, the surviving fraction (RESVERATROL; 1000 nM) was 1.17 ± 0.055.

Test System HS57T BREAST has a surviving fraction (VISMODEGIB; 0.5 nM) of 0.986 ± 0.066, a surviving fraction (VISMODEGIB; 1 nM) of 0.987 ± 0.04 and a surviving fraction (VISMODEGIB; 5 nM) of 1.01 ± 0.062. For the same test system, the surviving fraction (VISMODEGIB; 10 nM) was 1.04 ± 0.055, the surviving fraction (VISMODEGIB; 50 nM) was 1.04 ± 0.028 and the surviving fraction (VISMODEGIB; 100 nM) was 0.959 ± 0.038. It also gave a surviving fraction (VISMODEGIB; 500 nM) of 0.991 ± 0.037, a surviving fraction (VISMODEGIB; 1000 nM) of 0.978 ± 0.021 and a surviving fraction (RESVERATROL; 0.5 nM) of 0.971 ± 0.038. For the same test system, the surviving fraction (RESVERATROL; 1 nM) was 1.01 ± 0.073, the surviving fraction (RESVERATROL; 5 nM) was 0.984 ± 0.11 and the surviving fraction (RESVERATROL; 10 nM) was 1.07 ± 0.028. For the same test system, the surviving fraction (RESVERATROL; 50 nM) was 1.02 ± 0.034, the surviving fraction (RESVERATROL; 100 nM) was 1.04 ± 0.063 and the surviving fraction (RESVERATROL; 500 nM) was 1.01 ± 0.047. For the same test system, the surviving fraction (RESVERATROL; 1000 nM) was 0.998 ± 0.11.

HS578T BREAST was tested, and the surviving fraction (VISMODEGIB; 0.5 nM) was 0.936 ± 0.14, the surviving fraction (VISMODEGIB; 1 nM) was 0.934 ± 0.077 and the surviving fraction (VISMODEGIB; 5 nM) was 1.05 ± 0.062. For the same test system, the surviving fraction (VISMODEGIB; 10 nM) was 0.964 ± 0.069, the surviving fraction (VISMODEGIB; 50 nM) was 0.871 ± 0.11 and the surviving fraction (VISMODEGIB; 100 nM) was 0.881 ± 0.051. It also gave a surviving fraction (VISMODEGIB; 500 nM) of 0.913 ± 0.15, a surviving fraction (VISMODEGIB; 1000 nM) of 0.983 ± 0.15 and a surviving fraction (RESVERATROL; 0.5 nM) of 1.15 ± 0.15. For the same test system, the surviving fraction (RESVERATROL; 1 nM) was 1.15 ± 0.036, the surviving fraction (RESVERATROL; 5 nM) was 1.24 ± 0.14 and the surviving fraction (RESVERATROL; 10 nM) was 1.14 ± 0.049. For the same test system, the surviving fraction (RESVERATROL; 50 nM) was 1.03 ± 0.074, the surviving fraction (RESVERATROL; 100 nM) was 1.27 ± 0.11 and the surviving fraction (RESVERATROL; 500 nM) was 1.17 ± 0.22. It also gave a surviving fraction (RESVERATROL; 1000 nM) of 1.12 ± 0.19.

Source: the supplement of paper PMC6045584
